Measurements published in patent US10364216B2, “Alkenyl sulfate ester or salt thereof” (Kao Corporation, priority 2013, dated 2019).
Counter-ions that a name gives are not always drawn.

Biological target: T1, ENaC complex (human ENaCα, β and γ) (Homo sapiens, UniProt P37088+P51168+P51170)
T1 construct: host or cells: Xenopus oocytes injected with cRNA
T1 sequence (P37088 1-669): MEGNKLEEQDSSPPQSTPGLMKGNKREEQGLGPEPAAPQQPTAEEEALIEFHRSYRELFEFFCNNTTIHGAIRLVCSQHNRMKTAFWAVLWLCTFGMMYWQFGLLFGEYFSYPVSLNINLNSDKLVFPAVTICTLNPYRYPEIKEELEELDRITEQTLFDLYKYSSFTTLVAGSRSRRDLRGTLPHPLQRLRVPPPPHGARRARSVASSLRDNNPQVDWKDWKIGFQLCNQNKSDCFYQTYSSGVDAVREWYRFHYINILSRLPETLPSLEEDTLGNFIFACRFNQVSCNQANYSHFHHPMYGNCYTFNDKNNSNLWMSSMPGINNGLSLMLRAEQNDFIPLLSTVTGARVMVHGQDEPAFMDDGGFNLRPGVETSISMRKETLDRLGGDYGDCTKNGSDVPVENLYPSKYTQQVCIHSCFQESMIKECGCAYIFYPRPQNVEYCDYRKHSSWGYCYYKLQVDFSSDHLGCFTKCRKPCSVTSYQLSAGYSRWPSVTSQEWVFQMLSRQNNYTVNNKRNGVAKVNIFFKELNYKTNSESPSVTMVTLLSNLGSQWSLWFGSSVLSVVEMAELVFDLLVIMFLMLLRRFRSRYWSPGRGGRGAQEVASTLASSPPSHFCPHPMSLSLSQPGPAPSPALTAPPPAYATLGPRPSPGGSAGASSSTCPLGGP
T1 sequence (P51168 1-640): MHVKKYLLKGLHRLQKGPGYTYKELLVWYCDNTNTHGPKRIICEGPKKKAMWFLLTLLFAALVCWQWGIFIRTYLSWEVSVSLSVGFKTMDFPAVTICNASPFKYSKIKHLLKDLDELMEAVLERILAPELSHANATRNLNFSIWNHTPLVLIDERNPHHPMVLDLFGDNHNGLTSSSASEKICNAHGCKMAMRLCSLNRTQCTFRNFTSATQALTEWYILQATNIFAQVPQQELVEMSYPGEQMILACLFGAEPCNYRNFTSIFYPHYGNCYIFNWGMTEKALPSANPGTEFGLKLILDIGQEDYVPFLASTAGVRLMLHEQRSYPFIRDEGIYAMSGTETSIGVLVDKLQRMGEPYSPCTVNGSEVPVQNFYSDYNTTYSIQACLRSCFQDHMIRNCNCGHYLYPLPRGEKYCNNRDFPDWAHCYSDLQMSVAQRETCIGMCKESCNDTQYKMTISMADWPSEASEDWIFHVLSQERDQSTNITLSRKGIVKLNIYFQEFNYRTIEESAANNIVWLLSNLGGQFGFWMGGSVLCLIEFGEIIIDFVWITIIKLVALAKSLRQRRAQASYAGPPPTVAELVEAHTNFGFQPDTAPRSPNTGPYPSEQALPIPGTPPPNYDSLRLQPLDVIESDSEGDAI
T1 sequence (P51170 1-649): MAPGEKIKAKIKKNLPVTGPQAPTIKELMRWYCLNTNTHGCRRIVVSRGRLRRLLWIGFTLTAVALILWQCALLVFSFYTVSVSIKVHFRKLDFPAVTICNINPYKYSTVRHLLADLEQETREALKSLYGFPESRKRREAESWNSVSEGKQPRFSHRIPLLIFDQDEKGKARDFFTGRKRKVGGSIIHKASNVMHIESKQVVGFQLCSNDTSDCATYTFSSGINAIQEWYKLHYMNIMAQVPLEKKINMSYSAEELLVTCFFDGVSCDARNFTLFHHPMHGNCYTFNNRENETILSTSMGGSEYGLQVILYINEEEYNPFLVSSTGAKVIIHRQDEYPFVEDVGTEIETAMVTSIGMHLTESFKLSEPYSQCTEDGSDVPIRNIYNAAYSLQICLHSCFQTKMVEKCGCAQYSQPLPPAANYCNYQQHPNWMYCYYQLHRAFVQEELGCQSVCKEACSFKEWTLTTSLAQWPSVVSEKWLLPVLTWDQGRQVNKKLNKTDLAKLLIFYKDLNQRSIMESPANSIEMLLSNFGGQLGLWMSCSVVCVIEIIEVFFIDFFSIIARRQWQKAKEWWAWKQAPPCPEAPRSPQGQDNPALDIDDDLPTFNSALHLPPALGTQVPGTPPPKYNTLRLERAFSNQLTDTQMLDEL
Assay: ENaC inhibition activity, two-electrode voltage clamp in Xenopus oocytes
Format: cell-based
Details: 3 to 30 mM; membrane potential −60 mV; 115 mM NaCl solution; FIG. 1
Experimental: Inhibition activity of ENaC expressed in Xenopus oocytes was measured according to the method described in “The journal of biological chemistry, 284 (2): pages 792-798 (2009)”. Specifically, trans-3-octenyl sulfate was added to oocytes expressed with ENaC complex, and the activity of ENaC was analyzed electrophysiologically in accordance with the procedures described below.
First, DNA sequences encoding human ENaCα, β and γ, respectively were obtained by carrying out PCR using a plasmid vector on which the same gene was cloned (manufactured by Clontech Laboratories, Inc.) as a template. The obtained PCR amplification fragment was integrated into a transcription vector pSP64 (manufactured by Promega Corporation), and pSP64/ENaCα, pSP64/ENaCβ and pSP64/ENaCγ were manufactured, respectively.
pSP64/ENaCα and pSP64/ENaCγ were digested with EcoRI, and pSP64/ENaCβ was digested with PvuII, respectively, whereby linearize the plasmid DNA. […]
The obtained aqueous solutions of cRNA encoding ENaCα, ENaCβ and ENaCγ respectively were mixed in the same quantity, and injected by 50 ng per one Xenopus oocyte. […]
Two micro-glass electrodes were inserted into the oocyte, and the membrane potential was fixed at −60 mV. At this time, Na^+ ion influx induced by ENaC complex in a constantly active state was measured with replacement to change of the current amount. […]

CCCC/C=C/CCOS(=O)(=O)O [trans-3-octenyl sulfate]
Effect on inward current of ENaC expressing oocytes: inhibited inward current of ENaC expressing oocytes concentration-dependently
